Legend:
Format in all cases: functional
Cyperus [1] = assay: Pre-emergence herbicidal activity against Cyperus in tomato field assessed as number of weeds at 4.56 kg/ha applied through drip lines/backpack-spray on week 3 to 4 before transplanting measured 7 weeks after treatment (reference value: 3 plants/m2)
Poaceae [2] = assay: Pre-emergence herbicidal activity against Poaceae (grass family) in tomato field assessed as number of weeds at 4.56 kg/ha applied through drip lines/backpack-spray on week 3 to 4 before transplanting measured 7 weeks after treatment (reference value: 6 plants/m2)
Eleusine indica [3] = assay: Pre-emergence herbicidal activity against Eleusine indica in tomato field assessed as number of weeds at 4.56 kg/ha applied through drip lines/backpack-spray on week 3 to 4 before transplanting measured 12 weeks after treatment (reference value: 9 plants/m2)
Digitaria [4] = assay: Pre-emergence herbicidal activity against Digitaria spp. in tomato field assessed as number of weeds at 4.56 kg/ha applied through drip lines/backpack-spray on week 3 to 4 before transplanting measured 12 weeks after treatment (reference value: 9 plants/m2)
Echinochloa colona [5] = assay: Pre-emergence herbicidal activity against Echinochloa colona in tomato field assessed as number of weeds at 4.56 kg/ha applied through drip lines/backpack-spray on week 3 to 4 before transplanting measured 12 weeks after treatment (reference value: 9 plants/m2)
Portulaca oleracea [6] = assay: Pre-emergence herbicidal activity against Portulaca oleracea in tomato field assessed as number of weeds at 4.56 kg/ha applied through drip lines/backpack-spray on week 3 to 4 before transplanting measured 7 weeks after treatment (reference value: 9 plants/m2); conditions: pooled result: one value given for 8 cell lines, strains, targets or settings
Amaranthus dubius [7] = assay: Pre-emergence herbicidal activity against Amaranthus dubius in tomato field assessed as number of weeds at 4.56 kg/ha applied through drip lines/backpack-spray on week 3 to 4 before transplanting measured 12 weeks after treatment (reference value: 9 plants/m2)
Boerhavia erecta [8] = assay: Pre-emergence herbicidal activity against Boerhavia erecta in tomato field assessed as number of weeds at 4.56 kg/ha applied through drip lines/backpack-spray on week 3 to 4 before transplanting measured 12 weeks after treatment (reference value: 9 plants/m2)
Corynandra viscosa [9] = assay: Pre-emergence herbicidal activity against Cleome viscosa in tomato field assessed as number of weeds at 4.56 kg/ha applied through drip lines/backpack-spray on week 3 to 4 before transplanting measured 12 weeks after treatment (reference value: 9 plants/m2)
Portulaca oleracea [10] = assay: Pre-emergence herbicidal activity against Portulaca oleracea in tomato field assessed as number of weeds at 4.56 kg/ha applied through drip lines/backpack-spray on week 3 to 4 before transplanting measured 12 weeks after treatment (reference value: 9 plants/m2)
Trianthema [11] = assay: Pre-emergence herbicidal activity against Trianthema spp. in tomato field assessed as number of weeds at 4.56 kg/ha applied through drip lines/backpack-spray on week 3 to 4 before transplanting measured 12 weeks after treatment (reference value: 9 plants/m2)
Cyperus [12] = assay: Pre-emergence herbicidal activity against Cyperus in tomato field assessed as number of weeds at 4.56 kg/ha applied through drip lines/backpack-spray on week 3 to 4 before transplanting measured 12 weeks after treatment (reference value: 5 plants/m2)
Poaceae [13] = assay: Pre-emergence herbicidal activity against Poaceae (grass family) in tomato field assessed as number of weeds at 4.56 kg/ha applied through drip lines/backpack-spray on week 3 to 4 before transplanting measured 12 weeks after treatment (reference value: 8 plants/m2)
Boerhavia erecta [14] = assay: Pre-emergence herbicidal activity against Boerhavia erecta in tomato field assessed as number of extra-large fruits at 4.56 kg/ha applied through drip lines/backpack-spray on week 3 to 4 before transplanting (reference value: 21.3 x 10 '3 ha); conditions: pooled result: one value given for 8 cell lines, strains, targets or settings
Eleusine indica [15] = assay: Pre-emergence herbicidal activity against Eleusine indica in tomato field assessed as total number of fruits at 4.56 kg/ha applied through drip lines/backpack-spray on week 3 to 4 before transplanting (reference value: 49.5 x 10 '3 ha); conditions: pooled result: one value given for 8 cell lines, strains, targets or settings
Eleusine indica [16] = assay: Pre-emergence herbicidal activity against Eleusine indica in tomato field assessed as total fruit weight at 4.56 kg/ha applied through drip lines/backpack-spray on week 3 to 4 before transplanting (reference value: 13.7 t/ha); conditions: pooled result: one value given for 8 cell lines, strains, targets or settings
Eleusine indica [17] = assay: Pre-emergence herbicidal activity against Eleusine indica in tomato field assessed as extra-large fruit weight at 4.56 kg/ha applied through drip lines/backpack-spray on week 3 to 4 before transplanting (reference value: 7.3 t/ha); conditions: pooled result: one value given for 8 cell lines, strains, targets or settings
Digitaria [18] = assay: Pre-emergence herbicidal activity against Digitaria spp. in tomato field assessed as number of weeds at 0.80 kg/ha applied through drip lines/backpack-spray on week 3 to 4 before transplanting measured 12 weeks after treatment (reference value: 9 plants/m2)
Echinochloa colona [19] = assay: Pre-emergence herbicidal activity against Echinochloa colona in tomato field assessed as number of weeds at 0.80 kg/ha applied through drip lines/backpack-spray on week 3 to 4 before transplanting measured 12 weeks after treatment (reference value: 9 plants/m2)
Amaranthus dubius [20] = assay: Pre-emergence herbicidal activity against Amaranthus dubius in tomato field assessed as number of weeds at 0.80 kg/ha applied through drip lines/backpack-spray on week 3 to 4 before transplanting measured 12 weeks after treatment (reference value: 9 plants/m2)
Boerhavia erecta [21] = assay: Pre-emergence herbicidal activity against Boerhavia erecta in tomato field assessed as number of weeds at 0.80 kg/ha applied through drip lines/backpack-spray on week 3 to 4 before transplanting measured 12 weeks after treatment (reference value: 9 plants/m2)
Boerhavia erecta [22] = assay: Pre-emergence herbicidal activity against Boerhavia erecta in tomato field assessed as number of weeds at 0.80 kg/ha applied through drip lines/backpack-spray on week 3 to 4 before transplanting measured 7 weeks after treatment (reference value: 9 plants/m2)
Corynandra viscosa [23] = assay: Pre-emergence herbicidal activity against Cleome viscosa in tomato field assessed as number of weeds at 0.80 kg/ha applied through drip lines/backpack-spray on week 3 to 4 before transplanting measured 7 weeks after treatment (reference value: 9 plants/m2)
Portulaca oleracea [24] = assay: Pre-emergence herbicidal activity against Portulaca oleracea in tomato field assessed as number of weeds at 0.80 kg/ha applied through drip lines/backpack-spray on week 3 to 4 before transplanting measured 7 weeks after treatment (reference value: 9 plants/m2)
Trianthema [25] = assay: Pre-emergence herbicidal activity against Trianthema spp. in tomato field assessed as number of weeds at 0.80 kg/ha applied through drip lines/backpack-spray on week 3 to 4 before transplanting measured 7 weeks after treatment (reference value: 9 plants/m2)
Cyperus [26] = assay: Pre-emergence herbicidal activity against Cyperus in tomato field assessed as number of weeds at 0.80 kg/ha applied through drip lines/backpack-spray on week 3 to 4 before transplanting measured 7 weeks after treatment (reference value: 3 plants/m2)
Poaceae [27] = assay: Pre-emergence herbicidal activity against Poaceae (grass family) in tomato field assessed as number of weeds at 0.80 kg/ha applied through drip lines/backpack-spray on week 3 to 4 before transplanting measured 7 weeks after treatment (reference value: 6 plants/m2)
Corynandra viscosa [28] = assay: Pre-emergence herbicidal activity against Cleome viscosa in tomato field assessed as number of weeds at 0.80 kg/ha applied through drip lines/backpack-spray on week 3 to 4 before transplanting measured 12 weeks after treatment (reference value: 9 plants/m2)
Portulaca oleracea [29] = assay: Pre-emergence herbicidal activity against Portulaca oleracea in tomato field assessed as number of weeds at 0.80 kg/ha applied through drip lines/backpack-spray on week 3 to 4 before transplanting measured 12 weeks after treatment (reference value: 9 plants/m2)
Trianthema [30] = assay: Pre-emergence herbicidal activity against Trianthema spp. in tomato field assessed as number of weeds at 0.80 kg/ha applied through drip lines/backpack-spray on week 3 to 4 before transplanting measured 12 weeks after treatment (reference value: 9 plants/m2)
Cyperus [31] = assay: Pre-emergence herbicidal activity against Cyperus in tomato field assessed as number of weeds at 0.80 kg/ha applied through drip lines/backpack-spray on week 3 to 4 before transplanting measured 12 weeks after treatment (reference value: 5 plants/m2)
Poaceae [32] = assay: Pre-emergence herbicidal activity against Poaceae (grass family) in tomato field assessed as number of weeds at 0.80 kg/ha applied through drip lines/backpack-spray on week 3 to 4 before transplanting measured 12 weeks after treatment (reference value: 8 plants/m2)
Eleusine indica [33] = assay: Pre-emergence herbicidal activity against Eleusine indica in tomato field assessed as number of weeds at 0.80 kg/ha applied through drip lines/backpack-spray on week 3 to 4 before transplanting measured 7 weeks after treatment (reference value: 9 plants/m2)
Digitaria [34] = assay: Pre-emergence herbicidal activity against Digitaria spp. in tomato field assessed as number of weeds at 0.80 kg/ha applied through drip lines/backpack-spray on week 3 to 4 before transplanting measured 7 weeks after treatment (reference value: 9 plants/m2)
Echinochloa colona [35] = assay: Pre-emergence herbicidal activity against Echinochloa colona in tomato field assessed as number of weeds at 0.80 kg/ha applied through drip lines/backpack-spray on week 3 to 4 before transplanting measured 7 weeks after treatment (reference value: 9 plants/m2)
Amaranthus dubius [36] = assay: Pre-emergence herbicidal activity against Amaranthus dubius in tomato field assessed as number of weeds at 0.80 kg/ha applied through drip lines/backpack-spray on week 3 to 4 before transplanting measured 7 weeks after treatment (reference value: 9 plants/m2)
Eleusine indica [37] = assay: Pre-emergence herbicidal activity against Eleusine indica in tomato field assessed as total fruit weight at 0.80 kg/ha applied through drip lines/backpack-spray on week 3 to 4 before transplanting (reference value: 13.7 t/ha); conditions: pooled result: one value given for 8 cell lines, strains, targets or settings
Eleusine indica [38] = assay: Pre-emergence herbicidal activity against Eleusine indica in tomato field assessed as number of weeds at 0.80 kg/ha applied through drip lines/backpack-spray on week 3 to 4 before transplanting measured 12 weeks after treatment (reference value: 9 plants/m2)
Eleusine indica [39] = assay: Pre-emergence herbicidal activity against Eleusine indica in tomato field assessed as extra-large fruit weight at 0.80 kg/ha applied through drip lines/backpack-spray on week 3 to 4 before transplanting (reference value: 7.3 t/ha)
Digitaria [40] = assay: Pre-emergence herbicidal activity against Digitaria spp. in tomato field assessed as extra-large fruit weight at 0.80 kg/ha applied through drip lines/backpack-spray on week 3 to 4 before transplanting (reference value: 7.3 t/ha)
Echinochloa colona [41] = assay: Pre-emergence herbicidal activity against Echinochloa colona in tomato field assessed as extra-large fruit weight at 0.80 kg/ha applied through drip lines/backpack-spray on week 3 to 4 before transplanting (reference value: 7.3 t/ha)
Amaranthus dubius [42] = assay: Pre-emergence herbicidal activity against Amaranthus dubius in tomato field assessed as extra-large fruit weight at 0.80 kg/ha applied through drip lines/backpack-spray on week 3 to 4 before transplanting (reference value: 7.3 t/ha)
Trianthema [43] = assay: Pre-emergence herbicidal activity against Trianthema spp. in tomato field assessed as extra-large fruit weight at 0.80 kg/ha applied through drip lines/backpack-spray on week 3 to 4 before transplanting (reference value: 7.3 t/ha)
Eleusine indica [44] = assay: Pre-emergence herbicidal activity against Eleusine indica in tomato field assessed as total number of fruits at 0.80 kg/ha applied through drip lines/backpack-spray on week 3 to 4 before transplanting (reference value: 49.5 x 10 '3 ha); conditions: pooled result: one value given for 8 cell lines, strains, targets or settings
Eleusine indica [45] = assay: Pre-emergence herbicidal activity against Eleusine indica in tomato field assessed as number of extra-large fruits at 0.80 kg/ha applied through drip lines/backpack-spray on week 3 to 4 before transplanting (reference value: 21.3 x 10 '3 ha); conditions: pooled result: one value given for 8 cell lines, strains, targets or settings
Boerhavia erecta [46] = assay: Pre-emergence herbicidal activity against Boerhavia erecta in tomato field assessed as extra-large fruit weight at 0.80 kg/ha applied through drip lines/backpack-spray on week 3 to 4 before transplanting (reference value: 7.3 t/ha)
Corynandra viscosa [47] = assay: Pre-emergence herbicidal activity against Cleome viscosa in tomato field assessed as extra-large fruit weight at 0.80 kg/ha applied through drip lines/backpack-spray on week 3 to 4 before transplanting (reference value: 7.3 t/ha)
Portulaca oleracea [48] = assay: Pre-emergence herbicidal activity against Portulaca oleracea in tomato field assessed as extra-large fruit weight at 0.80 kg/ha applied through drip lines/backpack-spray on week 3 to 4 before transplanting (reference value: 7.3 t/ha)

CCCCN(CC)C(=O)SCCC [PEBULATE]
Activity (Cyperus [1]): 4 /m2
Activity (Poaceae [2]): 4 /m2
Activity (Eleusine indica [3]): 8 /m2
Activity (Digitaria [4]): 8 /m2
Activity (Echinochloa colona [5]): 8 /m2
Activity (Portulaca oleracea [6]): 14 /m2
Activity (Amaranthus dubius [7]): 8 /m2
Activity (Boerhavia erecta [8]): 8 /m2
Activity (Corynandra viscosa [9]): 8 /m2
Activity (Portulaca oleracea [10]): 8 /m2
Activity (Trianthema [11]): 8 /m2
Activity (Cyperus [12]): 6 /m2
Activity (Poaceae [13]): 5 /m2
fruit count (Boerhavia erecta [14]): 24.5 10³ fruits/ha
fruit number (Eleusine indica [15]): 55 10^3 fruits/ha
Activity (Eleusine indica [16]): 15.3 tons/ha
Activity (Eleusine indica [17]): 8.4 tons/ha

CCCN(CCC)c1c([N+](=O)[O-])cc(C(F)(F)F)cc1[N+](=O)[O-] [TRIFLURALIN]
Activity (Digitaria [18]): 7 /m2
Activity (Echinochloa colona [19]): 7 /m2
Activity (Amaranthus dubius [20]): 7 /m2
Activity (Boerhavia erecta [21]): 7 /m2
Activity (Boerhavia erecta [22]): 10 /m2
Activity (Corynandra viscosa [23]): 10 /m2
Activity (Portulaca oleracea [24]): 10 /m2
Activity (Trianthema [25]): 10 /m2
Activity (Cyperus [26]): 5 /m2
Activity (Poaceae [27]): 6 /m2
Activity (Corynandra viscosa [28]): 7 /m2
Activity (Portulaca oleracea [29]): 7 /m2
Activity (Trianthema [30]): 7 /m2
Activity (Cyperus [31]): 8 /m2
Activity (Poaceae [32]): 5 /m2
Activity (Eleusine indica [33]): 10 /m2
Activity (Digitaria [34]): 10 /m2
Activity (Echinochloa colona [35]): 10 /m2
Activity (Amaranthus dubius [36]): 10 /m2
Activity (Eleusine indica [37]): 15.9 tons/ha
Activity (Eleusine indica [38]): 7 /m2
Activity (Eleusine indica [39]): 9.6 tons/ha
Activity (Digitaria [40]): 9.6 tons/ha
Activity (Echinochloa colona [41]): 9.6 tons/ha
Activity (Amaranthus dubius [42]): 9.6 tons/ha
Activity (Trianthema [43]): 9.6 tons/ha
fruit number (Eleusine indica [44]): 59.5 10^3 fruits/ha
fruit count (Eleusine indica [45]): 29.5 10^3 fruits/ha
Activity (Boerhavia erecta [46]): 9.6 tons/ha
Activity (Corynandra viscosa [47]): 9.6 tons/ha
Activity (Portulaca oleracea [48]): 9.6 tons/ha
